Measurements published in ChEMBL document CHEMBL5465560, “Selectivity Literature for EUbOPEN Chemogenomic Library” (2024).
Blank lines part the entries; values can stand above or below the compound they belong to.

Experiments:
[1] = target: Calcium/calmodulin-dependent protein kinase type II subunit alpha (Homo sapiens, UniProt Q9UQM7); assay: Selectivity interaction (Ambit KINOMEscan and KiNATiv profiling in Jurkat cells) EUB0000090b CAMK2A; assay type: cell-based; settings: at 1 µM
[2] = target: T1, Serine/threonine-protein kinase TBK1 (Homo sapiens) (UniProt Q9UHD2); assay: Selectivity interaction (ActivX KiNativ screen (kinase selectivity in THP-1 cell lysates)) EUB0000639a TBK1; assay type: subcellular; settings: lysate, at 5 µM
T1 sequence (whole entry): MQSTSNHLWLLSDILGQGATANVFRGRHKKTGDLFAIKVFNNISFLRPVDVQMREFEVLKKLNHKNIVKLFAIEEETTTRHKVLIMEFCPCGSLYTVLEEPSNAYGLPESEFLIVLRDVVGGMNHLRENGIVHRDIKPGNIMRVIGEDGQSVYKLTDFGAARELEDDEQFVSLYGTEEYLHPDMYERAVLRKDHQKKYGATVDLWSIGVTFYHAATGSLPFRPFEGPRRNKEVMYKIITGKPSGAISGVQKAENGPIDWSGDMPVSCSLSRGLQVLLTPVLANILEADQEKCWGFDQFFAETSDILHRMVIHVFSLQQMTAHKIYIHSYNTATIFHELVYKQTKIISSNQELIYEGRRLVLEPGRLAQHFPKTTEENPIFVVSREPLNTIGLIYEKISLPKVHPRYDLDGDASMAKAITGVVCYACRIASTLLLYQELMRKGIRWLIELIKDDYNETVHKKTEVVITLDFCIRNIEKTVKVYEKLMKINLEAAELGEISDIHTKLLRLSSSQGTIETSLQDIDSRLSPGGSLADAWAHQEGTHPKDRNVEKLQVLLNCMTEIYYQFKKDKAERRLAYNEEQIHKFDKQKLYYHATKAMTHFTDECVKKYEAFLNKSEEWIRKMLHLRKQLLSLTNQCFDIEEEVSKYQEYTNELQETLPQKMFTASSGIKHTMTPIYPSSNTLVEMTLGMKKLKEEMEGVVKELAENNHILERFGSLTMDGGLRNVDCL

[3] = target: T2, Serine/threonine-protein kinase Nek1 (Homo sapiens) (UniProt Q96PY6); assay: Selectivity interaction (Kinase panel (Z-LYTE Assay)) EUB0001632a NEK1; settings: at 10 µM
T2 sequence (whole entry): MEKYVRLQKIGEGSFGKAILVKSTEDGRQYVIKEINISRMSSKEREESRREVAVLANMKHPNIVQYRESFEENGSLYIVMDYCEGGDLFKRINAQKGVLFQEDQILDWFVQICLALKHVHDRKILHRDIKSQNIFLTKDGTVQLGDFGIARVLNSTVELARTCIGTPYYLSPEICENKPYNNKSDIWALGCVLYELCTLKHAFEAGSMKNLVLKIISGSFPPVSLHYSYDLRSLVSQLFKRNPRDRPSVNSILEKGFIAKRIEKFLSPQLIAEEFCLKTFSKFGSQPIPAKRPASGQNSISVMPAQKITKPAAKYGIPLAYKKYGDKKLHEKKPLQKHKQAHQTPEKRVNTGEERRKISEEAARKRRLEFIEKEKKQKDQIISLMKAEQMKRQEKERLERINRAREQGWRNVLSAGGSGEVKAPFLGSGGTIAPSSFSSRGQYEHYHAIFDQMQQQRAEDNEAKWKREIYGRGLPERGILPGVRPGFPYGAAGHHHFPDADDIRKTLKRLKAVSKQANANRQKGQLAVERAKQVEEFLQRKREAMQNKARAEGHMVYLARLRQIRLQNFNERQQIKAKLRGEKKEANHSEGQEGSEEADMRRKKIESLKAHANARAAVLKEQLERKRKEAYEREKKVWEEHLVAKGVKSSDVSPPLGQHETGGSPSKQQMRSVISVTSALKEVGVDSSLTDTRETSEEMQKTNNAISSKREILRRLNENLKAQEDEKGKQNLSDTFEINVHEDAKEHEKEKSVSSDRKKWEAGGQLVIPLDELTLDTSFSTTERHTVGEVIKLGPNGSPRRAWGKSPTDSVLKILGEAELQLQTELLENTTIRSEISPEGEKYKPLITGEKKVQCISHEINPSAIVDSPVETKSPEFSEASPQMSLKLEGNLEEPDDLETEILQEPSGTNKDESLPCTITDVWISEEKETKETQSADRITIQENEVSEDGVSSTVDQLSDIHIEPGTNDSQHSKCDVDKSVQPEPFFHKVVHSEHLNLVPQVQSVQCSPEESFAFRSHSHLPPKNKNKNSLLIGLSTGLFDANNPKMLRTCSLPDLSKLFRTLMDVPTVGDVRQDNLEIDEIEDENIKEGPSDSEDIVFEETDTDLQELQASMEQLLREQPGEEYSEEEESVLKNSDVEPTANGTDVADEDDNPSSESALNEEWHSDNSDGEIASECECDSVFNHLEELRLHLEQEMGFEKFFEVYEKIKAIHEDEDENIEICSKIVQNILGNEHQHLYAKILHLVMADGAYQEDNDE

[4] = target: Tyrosine-protein kinase CSK (Homo sapiens) (UniProt P41240); assay: Selectivity interaction (Kinase panel (Z-LYTE Assay)) EUB0001632a CSK; settings: at 10 µM
[5] = target: Rho-associated protein kinase 1 (Homo sapiens) (UniProt Q13464); assay: Selectivity interaction (KinomeScan (DiscoverX)) EUB0000695a ROCK1; settings: at 100 nM
[6] = target: Dual specificity mitogen-activated protein kinase kinase 1 (Homo sapiens, UniProt Q02750); assay: Selectivity interaction (KinomeScan (DiscoverX)) EUB0001619a MAP2K1; settings: at 1 µM
[7] = target: Serine/threonine-protein kinase 24 (Homo sapiens) (UniProt Q9Y6E0); assay: Selectivity interaction (KinomeScan (DiscoverX)) EUB0000607a STK24; settings: at 10 µM
Serine/threonine-protein kinase 24 (Homo sapiens), sequence (Q9Y6E0 whole entry, looked up): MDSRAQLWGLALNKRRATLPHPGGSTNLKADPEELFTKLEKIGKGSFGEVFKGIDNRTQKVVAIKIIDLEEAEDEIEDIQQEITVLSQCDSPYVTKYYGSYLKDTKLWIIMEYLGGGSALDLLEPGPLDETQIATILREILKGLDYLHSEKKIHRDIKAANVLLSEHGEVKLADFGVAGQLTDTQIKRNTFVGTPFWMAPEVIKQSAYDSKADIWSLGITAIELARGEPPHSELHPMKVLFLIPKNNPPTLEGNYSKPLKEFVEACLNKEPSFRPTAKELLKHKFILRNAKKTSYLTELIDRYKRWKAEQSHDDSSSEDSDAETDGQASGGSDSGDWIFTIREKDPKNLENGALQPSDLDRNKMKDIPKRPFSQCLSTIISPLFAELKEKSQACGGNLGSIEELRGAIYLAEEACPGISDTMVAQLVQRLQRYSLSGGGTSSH

Rho-associated protein kinase 1 (Homo sapiens), sequence (Q13464 2-1354 limits assumed): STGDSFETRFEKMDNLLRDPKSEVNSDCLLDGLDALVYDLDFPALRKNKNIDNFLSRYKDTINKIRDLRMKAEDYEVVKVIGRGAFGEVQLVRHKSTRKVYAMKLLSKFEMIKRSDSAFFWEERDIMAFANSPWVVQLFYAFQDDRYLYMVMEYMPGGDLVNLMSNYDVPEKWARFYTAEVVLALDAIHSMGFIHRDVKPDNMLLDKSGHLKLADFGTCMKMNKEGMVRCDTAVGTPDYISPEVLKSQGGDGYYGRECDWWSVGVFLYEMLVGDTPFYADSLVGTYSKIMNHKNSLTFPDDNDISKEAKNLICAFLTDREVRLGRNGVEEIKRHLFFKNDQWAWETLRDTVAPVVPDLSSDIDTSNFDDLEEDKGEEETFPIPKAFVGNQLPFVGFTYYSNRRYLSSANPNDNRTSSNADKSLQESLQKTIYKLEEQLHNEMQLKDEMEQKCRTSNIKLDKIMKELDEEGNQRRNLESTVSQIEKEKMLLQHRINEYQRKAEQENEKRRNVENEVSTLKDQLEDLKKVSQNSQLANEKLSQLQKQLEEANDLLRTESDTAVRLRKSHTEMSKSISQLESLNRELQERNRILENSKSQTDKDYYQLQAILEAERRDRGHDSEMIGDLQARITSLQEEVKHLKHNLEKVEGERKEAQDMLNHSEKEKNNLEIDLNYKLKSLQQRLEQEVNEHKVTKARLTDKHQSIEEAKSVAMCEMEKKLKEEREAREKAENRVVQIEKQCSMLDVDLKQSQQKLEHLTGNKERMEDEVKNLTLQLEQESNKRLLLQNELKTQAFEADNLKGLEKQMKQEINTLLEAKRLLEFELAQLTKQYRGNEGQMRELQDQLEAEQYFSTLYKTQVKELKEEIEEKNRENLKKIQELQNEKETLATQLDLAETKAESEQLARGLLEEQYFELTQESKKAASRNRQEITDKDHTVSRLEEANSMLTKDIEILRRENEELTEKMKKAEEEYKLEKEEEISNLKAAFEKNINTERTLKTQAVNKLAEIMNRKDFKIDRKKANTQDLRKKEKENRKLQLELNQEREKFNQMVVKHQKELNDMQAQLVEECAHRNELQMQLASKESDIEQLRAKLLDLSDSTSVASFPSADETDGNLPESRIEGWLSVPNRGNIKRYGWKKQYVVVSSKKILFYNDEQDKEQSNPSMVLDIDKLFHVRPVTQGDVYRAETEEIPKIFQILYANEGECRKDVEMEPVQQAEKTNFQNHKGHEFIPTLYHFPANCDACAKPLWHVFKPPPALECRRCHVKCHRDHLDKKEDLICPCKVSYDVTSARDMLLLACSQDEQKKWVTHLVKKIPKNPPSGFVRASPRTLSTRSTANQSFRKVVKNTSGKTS
Calcium/calmodulin-dependent protein kinase type II subunit alpha, sequence (Q9UQM7 whole entry): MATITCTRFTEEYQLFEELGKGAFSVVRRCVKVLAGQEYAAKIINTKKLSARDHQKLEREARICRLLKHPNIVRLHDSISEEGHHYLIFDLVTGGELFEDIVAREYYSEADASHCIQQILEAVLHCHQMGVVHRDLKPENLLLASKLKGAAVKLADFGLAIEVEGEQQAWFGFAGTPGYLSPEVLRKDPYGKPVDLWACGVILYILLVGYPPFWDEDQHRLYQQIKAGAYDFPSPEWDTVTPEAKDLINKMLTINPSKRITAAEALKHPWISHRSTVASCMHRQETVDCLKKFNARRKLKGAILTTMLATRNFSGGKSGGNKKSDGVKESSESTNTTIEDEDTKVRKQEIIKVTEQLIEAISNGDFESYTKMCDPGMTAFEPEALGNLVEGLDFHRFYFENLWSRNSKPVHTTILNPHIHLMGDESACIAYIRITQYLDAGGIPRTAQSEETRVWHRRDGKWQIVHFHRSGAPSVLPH
Dual specificity mitogen-activated protein kinase kinase 1, sequence (Q02750 whole entry): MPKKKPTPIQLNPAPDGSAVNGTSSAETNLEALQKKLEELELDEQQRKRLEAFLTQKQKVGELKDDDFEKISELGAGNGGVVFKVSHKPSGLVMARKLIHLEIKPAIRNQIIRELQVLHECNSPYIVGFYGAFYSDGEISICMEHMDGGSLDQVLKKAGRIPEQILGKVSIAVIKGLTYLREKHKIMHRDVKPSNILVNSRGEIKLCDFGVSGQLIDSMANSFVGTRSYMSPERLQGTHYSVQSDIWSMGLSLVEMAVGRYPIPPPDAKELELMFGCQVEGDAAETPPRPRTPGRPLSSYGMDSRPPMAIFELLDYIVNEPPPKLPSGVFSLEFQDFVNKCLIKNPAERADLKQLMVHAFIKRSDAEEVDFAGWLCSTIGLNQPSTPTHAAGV
Tyrosine-protein kinase CSK (Homo sapiens), sequence (P41240 2-450 limits assumed): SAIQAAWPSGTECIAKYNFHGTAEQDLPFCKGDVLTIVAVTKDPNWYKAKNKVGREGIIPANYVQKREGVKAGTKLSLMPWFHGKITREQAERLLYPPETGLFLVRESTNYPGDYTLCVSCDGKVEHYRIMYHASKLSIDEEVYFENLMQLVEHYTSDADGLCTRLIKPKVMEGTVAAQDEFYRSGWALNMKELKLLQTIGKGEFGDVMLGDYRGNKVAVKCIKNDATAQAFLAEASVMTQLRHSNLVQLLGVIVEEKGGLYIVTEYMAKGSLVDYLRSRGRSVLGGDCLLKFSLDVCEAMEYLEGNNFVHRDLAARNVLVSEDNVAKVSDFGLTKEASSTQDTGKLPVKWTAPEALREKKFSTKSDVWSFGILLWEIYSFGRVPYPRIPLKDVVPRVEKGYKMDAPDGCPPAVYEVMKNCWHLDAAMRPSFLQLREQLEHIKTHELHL

Structure (SMILES): CN(C)C/C=C/C(=O)Nc1ccc(C(=O)N2CCCC(Nc3ncc(Cl)c(-c4c[nH]c5ccccc45)n3)C2)cc1 (configuration not stated)
% of control [1]: 99%

% of inhibition [2]: 23.9%
Structure (SMILES): CC[C@@H]1[C@H](F)C(=O)N[C@@H]1COc1nccc2cc(C(N)=O)c(OC)cc12 [ZIMLOVISERTIB]

% of control [3]: -1.93%
% of control [4]: 10.7%
Structure (SMILES): Cn1cc(-n2cnc3c(NCc4nc5cc(Cl)c(Cl)cc5[nH]4)nc(N4CCOCC4)nc32)cn1

Structure (SMILES): Cc1cc(F)c(C(=O)Nc2cccc(-c3nncn3C(C)C)n2)cc1-n1cnc(C2CC2)c1
% of control [5]: 99%

Structure (SMILES): N#Cc1cccc(-c2c[nH]c3ncnc(N4CCOCC4)c23)c1
% of control [6]: 13%

Structure (SMILES): CNC(=O)Nc1ccc(-c2nc(N3CC4CCC(C3)O4)c3cnn(C4CCC5(CC4)OCCO5)c3n2)cc1
% of control [7]: 96%
